Test results published in US6352980B1, “Estrenes for inducting hypothalamic effects” (Pherin Pharmaceuticals, Inc., priority 1991, dated 2002).
“Also recorded” adds a separate entry of the source.

Key:
Format in all cases: in vivo, human
[1] = test system: olfactory epithelium (OE); test: Electro-olfactgram (EOG) (Example 57); conditions: 20 subjects (10 males, 10 females); 200 fmoles vomeropherins, 400 fmoles olfactants; one second pulses; FIG. 7A
Excerpt: (§1) The stimulation and recording system consists of a “multifunctional miniprobe” described elsewhere (Monti-Bloch, L. and Grosser, B. l. (1991) “Effect of putative pheromones on the electrical activity of the human vomeronasal organ and olfactory epithelium,” J. Steroid Biochem. Molec. Biol. 39:573-582.). The recording electrode is a 0.3 mm silver ball attached to a small (0.1 mm) silver wire insulated with Teflon© the surface of the electrode is first treated to produce a silver chloride interface, and is then covered with gelatin It is positioned within a small caliber Teflon© catheter (dia=5 mm) such that the tip of the electrode protrudes approximately 2 mm. The Teflon© catheter is 10 cm in length and constitutes the terminal extension for a multichannel delivery system which delivers a continuous air stream carrying discreet pulses of chemosensory stimuli. The air stream first passes into a small chamber and is bubbled through a solution containing either a vomeropherin or an olfactant in a diluent or the diluent alone. A solenoid is used to rapidly redirect the air stream from the chamber to a route which bypasses the chamber. This creates a discreet pulse of stimulant in the air stream. A second, outer Teflon® tube with a diameter of 2 mm surrounds the catheter-electrode assemblage, and its central end is connected to an aspirator that provides continuous suction of 3 ml/s. This concentric arrangement of the outer suction tube allows the emitted chemosensory stimuli to be localized to an area we call a “minifield” (approx. dia=1 mm), and it avoids diffusion of substances either to the area outside the intended stimulation site or into the respiratory system. The entire stimulating and recording assemblage may be positioned either on the neurosensory epithelium within the VNO, or on the surface of the olfactory or respiratory epithelium.
(§2) Chemosensory Stimulants: Olfactory test substances are cineole, and 1-carvone; vomeropherins are A, B, C, E and F. (Vomeropherins were supplied by Pherin Corporation, Menlo Park, Calif.), Samples of vomeropherins In. concentration of 25-800 fmoles are delivered in the continuous air stream for durations from 300 milliseconds to 1 second. Usually, intervals of 3 to 5 minutes separated each series of short test pulses. […]
(§3) Statistical Analysis: EVGs or EOGS, peak-to-peak changes and frequency changes of other parameters were measured and statistically analyzed. The significance of the results was determined by either using paired t-tests or analysis of variance (ANOVA).
Effects of Vomeropherins on the EOG: The summated receptor potential from the olfactory epithelium (OE) was recorded in 20 subjects: 10 males and 10 females. […]

VNO [2] = test: Electro-vomeronasogram (EVG) (Example 57); conditions: for EVG response to olfactants delivered to the VNO: male and female subjects, 400 fmoles, FIG. 7B; for EVG response in female subjects: 30 female subjects (ages 20-45), FIG. 6B; for EVG response in the male VNO: male subjects, FIG. 6A and FIG. 7; for organ response (EVG data): additional tests on 13 estranes
Protocol: The following electrophysiological studies were performed in 60 clinically normal human volunteers of both sexes (30 male and 30 female) whose ages ranged from 20 to 45 years. No anesthetics were used, and female subjects were excluded if pregnant.
as §1
Electro-vomeronasogram (EVG): Recordings are carried out in a quiet room with the subject supine; the multi-functional miniprobe is initially stabilized within the nasal cavity using a nasal retractor placed in the vestibule. Reference and ground electrodes consist of silver discs (8 mm), both of which are positioned on the glabella.
The entrance to the VNO, or vomeronasal pit, is identified by first dilating the nasal aperture and vestibule. A 6× magnifying binocular loupe with halogen illumination is then used to introduce the tip of the Teflon® catheter and recording electrode assemblage into the VNO opening where it is stabilized at an approximate depth of 1 mm within the vomeronasal passage. Optimal placement of the recording electrode is signaled after testing for an adequate depolarization in response to a test substance.
Electrical signals from the recording electrode are fed to a DC amplifier after which they are digitized, computer monitored, and stored. The peak-to-peak amplitude of the signals is measured, and the area under the depolarization wave is integrated, while continuously monitoring the signal both on the computer screen and on a digital oscilloscope. Artifacts produced by respiratory movements are deleted by training the subjects to practice mouth breathing with velopharyngeal closure.
as §2

VNO [3] = test: Skin temperature (ST) on vomeropherin stimulation of the VNO
Protocol: (§4) Cortical evoked activity was induced by VNO stimulation with vomeropherins, and olfactory stimulation with odorants delivered in 300 ms air pulses. It was recorded using standard electroencephalographic (EEG) electrodes placed at positions Cz-A1 and Tz-A1 of the international […] system; the ground electrode was placed on the mastoid process. Electrodermal activity (EDA) was recorded using standard 8 mm silver electrodes in contact with palmar skin of the medial and ring fingers, respeCtively, through a conductive gel interface. Skin temperature (ST) was recorded by a small (1.0 mm) thermistor probe placed in the right ear lobe. Peripheral arterial pulse (PAP) was monitored with a plethysmograph attached to the tip of the index finger. Respiratory frequency (RF) was measured with an adjustable strain gauge placed around the lower thorax. All electrical signals were DC amplified, digitized (MP-100, Biopac Systems) and continuously monitored utilizing a computer.
as §3
In female subjects vomeropherins produced changes in EDA and ST with a greater standard deviation than in males.

VNO [4] = test: Cortical activity (EEG) on VNO stimulation with vomeropherins; conditions: for EEG-beta activity / EEG-alpha activity: additional tests on 13 estranes of Chart 1
Protocol: as §4, §3
[…] […] Synchronization of the EEG was sustained for 1.5 to 2.7 minutes after application of a single pulse of active substance.

VNO [5] = test: Autonomic responses to Estrene stimulation of the VNO (Example 54); conditions: 40 male subjects, 1 second pulse
Protocol: Various autonomic parameters were monitored while 1,3,5(10),16-Estratetraen-3-yl-acetate was administered to 40 male subjects using the procedure described in Example 20. Propylene glycol was also administered as a control. The ligand was administered as a 1 second pulse. The change in autonomic function was first noted within 2 seconds and lasted for up to 45 seconds.

VNO [6] = test: Electrodermal activity (EDA) on vomeropherin stimulation of the VNO; conditions: n=30, p<0.01; for electrodermal activity (EDA): female subjects
Protocol: as §4, §3
Reflex Effects of Vomeropherins: Studies were conducted to determine the central nervous system (CNS) reflex responses to vomeropherin stimulation of the VNO. The sexually dimorphic local responses induced by vomeropherins (FIGS. 6A and B) were mirrored in the autonomic response of male & female subjects. […] In female subjects.

[7] = 30 female subjects, p<0.01 compared to A and C, FIG. 6H
[8] = females, single pulse 200 fmoles, FIG. 6F

C=C(C)C1CC=C(C)C(=O)C1 (centres unmarked) [1-carvone]
EOG local response of the OE [1]: strong response in both men and women; also recorded: significant (p<0.01) local response | EVG response to olfactants delivered to the VNO (VNO [2]): only a minor local response in the VNO; also recorded: do not induce a significant EVG response

CC(=O)Oc1ccc2c(c1)CC[C@@H]1[C@@H]2CC[C@]2(C)C=CC[C@@H]12 [A, 1,3,5(10),16-Estratetraen-3-yl acetate]
skin temperature (ST) (VNO [3]; 30 male subjects, p<0.01, FIG. 6G): significant increase in skin temperature | alpha cortical activity (VNO [4]; males, 200 fmoles, air pulses 300 ms to 1 sec, FIG. 6E): significantly increased alpha cortical activity; also recorded: strongest effect | duration of change in autonomic function (VNO [5]): up to 45 seconds | time at which change in autonomic function was first noted (VNO [5]): ≤ 2 s | integrated receptor potential in the VNO (VNO [5]; compared to propylene glycol control, FIG. 4A): significant change | galvanic skin response (VNO [5]; compared to propylene glycol control, FIG. 4B): significant change | skin temperature (VNO [5]; compared to propylene glycol control, FIG. 4C): significant change | EVG response in female subjects (VNO [2]; 100 fmoles): small effect that was significantly different from F | EVG average response (mean) (VNO [2]; male subjects (ages 20 to 38), 100 fmoles, 1 second pulses, FIG. 6A): 11.4 mV | skin resistance (electrodermal activity, EDA) (VNO [6]; male subjects, FIG. 6C): decreased skin resistance

C[C@@]12C=CC[C@H]1[C@@H]1CCC3=CC(=O)CC[C@]3(C)[C@H]1CC2 [B, Androsta-4,16-dien-3-one, reference compound]
skin temperature (ST) (VNO [3]; [7]): significant increase in skin temperature | alpha cortical activity (VNO [4]; [8]): increased alpha cortical | EOG local response of the OE [1]: only vomeropherin having significant effect in the OE; also recorded: significant (p<0.01) local response | EVG response in the male VNO (VNO [2]; 100 fmoles): significantly reduced responses | electrodermal activity (EDA) (VNO [6]): greater decrease in EDA than A or C

C[C@@]12C=CC[C@H]1[C@@H]1CCC3=CC(=O)CC[C@]3(O)[C@H]1CC2 [E7/N1, 10-HYDROXYESTRA-4,16-DIEN-3-ONE]
EEG-beta activity (VNO [4]; men, FIGS. 22-34 A): high EEG-betain men | EEG-alpha activity (VNO [4]; women, FIGS. 22-34 B): best EEG-alpha activity in women; also recorded: high EEG-alpha in women | organ response (EVG data) (VNO [2]; men, FIG. 21A): excellent organ response | organ response (EVG data) (VNO [2]; women, FIG. 20A): excellent organ response

COC1=CCC2=C(CC[C@@H]3[C@@H]2CC[C@]2(C)C=CC[C@@H]32)C1 [E8/N1, 3-METHOXYESTRA-2,5(10),16-TRIENE]
EEG-beta activity (VNO [4]; men, FIGS. 22-34 A): best EEG-beta activity in men

C[C@@]12C=CC[C@H]1[C@@H]1C[C@@H](O)c3cc(O)ccc3[C@H]1CC2 [E12/N1, ESTRA-1,3,5(10),16-TETRAEN-3,6β-DIOL]
EEG-alpha activity (VNO [4]; men, FIGS. 22-34 A): best EEG-alpha activity in men

C[C@@]12C=CC[C@H]1[C@@H]1CCC3=C[C@H](O)CC[C@]3(C)[C@H]1CC2 [E, Androsta-4,16-dien-3α-ol]
EOG local response of the OE [1]: stronger olfactory effect than does F; also recorded: significant (p<0.01) local response | EVG response in female subjects (VNO [2]; 100 fmoles): does not stimulate the VNO in female subjects

C[C@@]12C=CC[C@H]1[C@@H]1CCC3=C[C@@H](O)CC[C@]3(C)[C@H]1CC2 [F, Androsta-4,16-dien-3β-ol, reference compound]
skin temperature (ST) (VNO [3]; [7]): significant increase in skin temperature | alpha cortical activity (VNO [4]; [8]): increased alpha cortical | EVG response in female subjects (VNO [2]; 100 fmoles): produced the most significant differences within the group | EVG response in the male VNO (VNO [2]; 100 fmoles): significantly reduced responses | electrodermal activity (EDA) (VNO [6]): greater decrease in EDA than A or C

CC12CCC(CC1)C(C)(C)O2 [cineole]
EOG local response of the OE [1]: strong response in both men and women; also recorded: significant (p<0.01) local response | EVG response to olfactants delivered to the VNO (VNO [2]): only a minor local response in the VNO; also recorded: do not induce a significant EVG response
